Assay results taken from patent US9201014B2, “Development of photostable near-IR cyanine dyes for in vivo imaging” (National University of Singapore, priority 2010, dated 2015).

What was measured:
[1] = Primary screening of photostability of the CyNA library (time-course fluorescence, 8 h); type: physicochemical; set-up: F/Fo, fluorescent intensity at 8 hours vs 0 hours: unit: %; settings: 10 μM in HEPES 100 mM pH 7.4, 2% DMSO
Method: As a primary evaluation of photo stability, the decrease in fluorescence intensity of the 80 CyNA compounds was measured (see Table 2). The average decrease in fluorescence intensity after 8 hours of irradiation by a xenon lamp was approximately 18%. A subset of the most photostable compounds (i.e., F/Fo reported in Table 2 was greater than or equal to 95) was examined under stronger irradiation in various buffers.
10-μM CyNA solutions in 100 mM HEPES buffer (pH 7.4) containing 2% DMSO were placed in a 96-well black plate, and fluorescence intensity measurements were recorded every 10 minutes for a total period of 8 hours (excitation-emission: 790-820 nm). A subset of fourteen compounds selected according to their F8h/Fo quotients, quantum yields and maximum relative fluorescence units (RFU) values was further evaluated in a secondary screening

[2] = Absorbance and fluorescence maximum wavelengths and quantum yields of the CyNA library; type: physicochemical; settings: for λabs, absorbance maximum wavelength / λem, fluorescence maximum wavelength: CyNA library; for φ, quantum yield: in DMSO, Cardiogreen as standard
Method: Since the k values of the different CyNA compounds indicated some dependency on the chemical structure of the amine, the CyNA scaffold was derivatized with a broad range of primary amines (FIGS. 4A-4C). The fluorescence properties of the 80-member CyNA library were measured. The absorption maximum wavelengths ranged from 802 nm to 806 nm, emission maximum wavelengths ranged from 817 nm to 823 nm, and the average quantum yield was approximately 0.10 (Table 2).
All the chemicals (building block amines plus others) and solvents were purchased from Sigma Aldrich, Alfa Aesar, Fluka, MERCK or Acros, and used without further purification. ^1H-NMR and ^13C-NMR spectra were recorded on Bruker Avance 300 NMR and 500 NMR spectrometers, and chemical shifts are expressed in parts per million (ppm). High-resolution mass spectrometry (HRMS) data was recorded on a Micromass VG 7035. Photobleaching experiments were performed using a UVP Blak-Ray® B-100AP high intensity UV lamp (100 W, 365 nm) Spectroscopic and quantum yield data were measured on a SpectraMax M2 spectrophotometer (Molecular Devices), and the data analysis was performed using GraphPrism 5.0. Photobleaching measurements were performed using an Eclipse Ti-U Nikon microscope (filter cube: 750/800) attached to Ti:sappire oscillator that operated in continuous wave mode, and the data was processed using the software NIS-Elements 3.10. In vivo images were taken in an IVIS Spectrum imaging system (Caliper Life Sciences).

Compound: CCCCC(CC)COCCCN(C(C)=O)C1=C(/C=C/C2=[N+](CCC)c3ccccc3C2(C)C)CCC/C1=C\C=C1\N(CCC)c2ccccc2C1(C)C (stereo not drawn) [CyNA-193]
- max RFU, maximum relative fluorescence units [1]: 58.7
- λabs, absorbance maximum wavelength [2]: 806 nm
- λem, fluorescence maximum wavelength [2]: 822 nm
- φ, quantum yield [2]: 0.12

Compound: CCCN1/C(=C/C=C2\CCCC(/C=C/C3=[N+](CCC)c4ccccc4C3(C)C)=C2N(CCc2ccc(CC)cc2)C(C)=O)C(C)(C)c2ccccc21 [CyNA-201]
- F/Fo, fluorescent intensity at 8 hours vs 0 hours [1]: 33
- max RFU, maximum relative fluorescence units [1]: 52.6
- λabs, absorbance maximum wavelength [2]: 803 nm
- λem, fluorescence maximum wavelength [2]: 820 nm
- φ, quantum yield [2]: 0.08

Compound: CCCN1/C(=C/C=C2\CCCC(/C=C/C3=[N+](CCC)c4ccccc4C3(C)C)=C2N(Cc2ccc(F)cc2)C(C)=O)C(C)(C)c2ccccc21 [CyNA-218]
- F/Fo, fluorescent intensity at 8 hours vs 0 hours [1]: 85
- max RFU, maximum relative fluorescence units [1]: 549.9
- λabs, absorbance maximum wavelength [2]: 802 nm
- λem, fluorescence maximum wavelength [2]: 823 nm
- φ, quantum yield [2]: 0.08

Compound: CCCN1/C(=C/C=C2\CCCC(/C=C/C3=[N+](CCC)c4ccccc4C3(C)C)=C2N(C(C)=O)C2CCCCCCC2)C(C)(C)c2ccccc21 [CyNA-219]
- F/Fo, fluorescent intensity at 8 hours vs 0 hours [1]: 65
- max RFU, maximum relative fluorescence units [1]: 902.7
- λabs, absorbance maximum wavelength [2]: 804 nm
- λem, fluorescence maximum wavelength [2]: 822 nm
- φ, quantum yield [2]: 0.14

Compound: CCCN1/C(=C/C=C2\CCCC(/C=C/C3=[N+](CCC)c4ccccc4C3(C)C)=C2N(Cc2ccc(Cl)cc2)C(C)=O)C(C)(C)c2ccccc21 [CyNA-221]
- F/Fo, fluorescent intensity at 8 hours vs 0 hours [1]: 86
- max RFU, maximum relative fluorescence units [1]: 382.6
- λabs, absorbance maximum wavelength [2]: 803 nm
- λem, fluorescence maximum wavelength [2]: 820 nm
- φ, quantum yield [2]: 0.07

Compound: CCCCC(CC)CN(C(C)=O)C1=C(/C=C/C2=[N+](CCC)c3ccccc3C2(C)C)CCC/C1=C\C=C1\N(CCC)c2ccccc2C1(C)C (stereo not drawn) [CyNA-230]
- F/Fo, fluorescent intensity at 8 hours vs 0 hours [1]: 80
- max RFU, maximum relative fluorescence units [1]: 77.7
- λabs, absorbance maximum wavelength [2]: 805 nm
- λem, fluorescence maximum wavelength [2]: 822 nm
- φ, quantum yield [2]: 0.09

Compound: CCCN1/C(=C/C=C2\CCCC(/C=C/C3=[N+](CCC)c4ccccc4C3(C)C)=C2N(Cc2cc(OC)cc(OC)c2)C(C)=O)C(C)(C)c2ccccc21 [CyNA-262]
- F/Fo, fluorescent intensity at 8 hours vs 0 hours [1]: 81
- max RFU, maximum relative fluorescence units [1]: 816.5
- λabs, absorbance maximum wavelength [2]: 803 nm
- λem, fluorescence maximum wavelength [2]: 822 nm
- φ, quantum yield [2]: 0.10

Compound: CCCN1/C(=C/C=C2\CCCC(/C=C/C3=[N+](CCC)c4ccccc4C3(C)C)=C2N(CCc2ccc(OC)c(OC)c2)C(C)=O)C(C)(C)c2ccccc21 [CyNA-266]
- F/Fo, fluorescent intensity at 8 hours vs 0 hours [1]: 99
- max RFU, maximum relative fluorescence units [1]: 541.8
- λabs, absorbance maximum wavelength [2]: 804 nm
- λem, fluorescence maximum wavelength [2]: 823 nm
- φ, quantum yield [2]: 0.08

Compound: CCCN1/C(=C/C=C2\CCCC(/C=C/C3=[N+](CCC)c4ccccc4C3(C)C)=C2N(CCCOC(C)C)C(C)=O)C(C)(C)c2ccccc21 [CyNA-274]
- F/Fo, fluorescent intensity at 8 hours vs 0 hours [1]: 99
- max RFU, maximum relative fluorescence units [1]: 1209.5
- λabs, absorbance maximum wavelength [2]: 805 nm
- λem, fluorescence maximum wavelength [2]: 820 nm
- φ, quantum yield [2]: 0.12

Compound: CCCN1/C(=C/C=C2\CCCC(/C=C/C3=[N+](CCC)c4ccccc4C3(C)C)=C2N(C(C)=O)C(C)CCc2ccccc2)C(C)(C)c2ccccc21 (stereo not drawn) [CyNA-275]
- F/Fo, fluorescent intensity at 8 hours vs 0 hours [1]: 62
- max RFU, maximum relative fluorescence units [1]: 679.8
- λabs, absorbance maximum wavelength [2]: 804 nm
- λem, fluorescence maximum wavelength [2]: 817 nm
- φ, quantum yield [2]: 0.14

Compound: CCCN1/C(=C/C=C2\CCCC(/C=C/C3=[N+](CCC)c4ccccc4C3(C)C)=C2N(CCN2CCOCC2)C(C)=O)C(C)(C)c2ccccc21 [CyNA-282]
- F/Fo, fluorescent intensity at 8 hours vs 0 hours [1]: 90
- max RFU, maximum relative fluorescence units [1]: 820.1
- λabs, absorbance maximum wavelength [2]: 805 nm
- λem, fluorescence maximum wavelength [2]: 819 nm
- φ, quantum yield [2]: 0.09

Compound: CCCN1/C(=C/C=C2\CCCC(/C=C/C3=[N+](CCC)c4ccccc4C3(C)C)=C2N(Cc2ccc(OC)c(OC)c2)C(C)=O)C(C)(C)c2ccccc21 [CyNA-319]
- F/Fo, fluorescent intensity at 8 hours vs 0 hours [1]: 67
- max RFU, maximum relative fluorescence units [1]: 578.6
- λabs, absorbance maximum wavelength [2]: 805 nm
- λem, fluorescence maximum wavelength [2]: 820 nm
- φ, quantum yield [2]: 0.06

Compound: CCCN1/C(=C/C=C2\CCCC(/C=C/C3=[N+](CCC)c4ccccc4C3(C)C)=C2N(Cc2ccccc2Br)C(C)=O)C(C)(C)c2ccccc21 [CyNA-329]
- F/Fo, fluorescent intensity at 8 hours vs 0 hours [1]: 99
- max RFU, maximum relative fluorescence units [1]: 348.8
- λabs, absorbance maximum wavelength [2]: 806 nm
- λem, fluorescence maximum wavelength [2]: 821 nm
- φ, quantum yield [2]: 0.10

Compound: CCCN1/C(=C/C=C2\CCCC(/C=C/C3=[N+](CCC)c4ccccc4C3(C)C)=C2N(CCCc2ccccc2)C(C)=O)C(C)(C)c2ccccc21 [CyNA-335]
- F/Fo, fluorescent intensity at 8 hours vs 0 hours [1]: 50
- max RFU, maximum relative fluorescence units [1]: 167.9
- λabs, absorbance maximum wavelength [2]: 804 nm
- λem, fluorescence maximum wavelength [2]: 821 nm
- φ, quantum yield [2]: 0.06

Compound: CCCN1/C(=C/C=C2\CCCC(/C=C/C3=[N+](CCC)c4ccccc4C3(C)C)=C2N(Cc2c(OC)cc(OC)cc2OC)C(C)=O)C(C)(C)c2ccccc21 [CyNA-336]
- F/Fo, fluorescent intensity at 8 hours vs 0 hours [1]: 85
- max RFU, maximum relative fluorescence units [1]: 827.7
- λabs, absorbance maximum wavelength [2]: 804 nm
- λem, fluorescence maximum wavelength [2]: 820 nm
- φ, quantum yield [2]: 0.11

Compound: CCCN1/C(=C/C=C2\CCCC(/C=C/C3=[N+](CCC)c4ccccc4C3(C)C)=C2N(Cc2cccc(Br)c2)C(C)=O)C(C)(C)c2ccccc21 [CyNA-341]
- F/Fo, fluorescent intensity at 8 hours vs 0 hours [1]: 100
- max RFU, maximum relative fluorescence units [1]: 259.2
- λabs, absorbance maximum wavelength [2]: 805 nm
- λem, fluorescence maximum wavelength [2]: 822 nm
- φ, quantum yield [2]: 0.10

Compound: CCCN1/C(=C/C=C2\CCCC(/C=C/C3=[N+](CCC)c4ccccc4C3(C)C)=C2N(CCc2ccc(O)cc2)C(C)=O)C(C)(C)c2ccccc21 [CyNA-346]
- F/Fo, fluorescent intensity at 8 hours vs 0 hours [1]: 69
- max RFU, maximum relative fluorescence units [1]: 434.2
- λabs, absorbance maximum wavelength [2]: 804 nm
- λem, fluorescence maximum wavelength [2]: 822 nm
- φ, quantum yield [2]: 0.07

Compound: CCCN1/C(=C/C=C2\CCCC(/C=C/C3=[N+](CCC)c4ccccc4C3(C)C)=C2N(Cc2cccc(F)c2F)C(C)=O)C(C)(C)c2ccccc21 [CyNA-351]
- F/Fo, fluorescent intensity at 8 hours vs 0 hours [1]: 52
- max RFU, maximum relative fluorescence units [1]: 555.4
- λabs, absorbance maximum wavelength [2]: 805 nm
- λem, fluorescence maximum wavelength [2]: 818 nm
- φ, quantum yield [2]: 0.10

Compound: CCCN1/C(=C/C=C2\CCCC(/C=C/C3=[N+](CCC)c4ccccc4C3(C)C)=C2N(Cc2cc(OC)c(OC)c(OC)c2)C(C)=O)C(C)(C)c2ccccc21 [CyNA-356]
- F/Fo, fluorescent intensity at 8 hours vs 0 hours [1]: 83
- max RFU, maximum relative fluorescence units [1]: 892.3
- λabs, absorbance maximum wavelength [2]: 804 nm
- λem, fluorescence maximum wavelength [2]: 820 nm
- φ, quantum yield [2]: 0.12

Compound: CCCN1/C(=C/C=C2\CCCC(/C=C/C3=[N+](CCC)c4ccccc4C3(C)C)=C2N(Cc2ccc(OC)cc2OC)C(C)=O)C(C)(C)c2ccccc21 [CyNA-358]
- F/Fo, fluorescent intensity at 8 hours vs 0 hours [1]: 100
- max RFU, maximum relative fluorescence units [1]: 487.4
- λabs, absorbance maximum wavelength [2]: 805 nm
- λem, fluorescence maximum wavelength [2]: 819 nm
- φ, quantum yield [2]: 0.14
